From article PMC5390772 (Neuropharmacology, 2017)

Experiments:
[1] = target: α7 nACh receptor S162C; format: binding, chick
Description: (§1) Mutagenesis was performed using the QuikChange method (Agilent Technologies Inc., CA, USA) to substitute amino acids throughout each of the binding loops A – F (Fig. 1). The α7 nACh-5-HT3 subunit cDNA was as described by Bertrand ([Eiselé et al., 1993]) and was cloned into pcDNA3.1 for expression in HEK293 cells. Human 5-HT3A cDNA (accession number: P46098) and mouse 5-HT3A cDNA (Q6J1J7) were cloned into the same vector. Cells were transiently transfected with this cDNA using either polyethyleneimine (PEI: 25 kDa, linear, powder, Polysciences Inc., Eppelheim, Germany) or Lipofectamine 2000 (Life Technologies, CA, USA) according to the manufacturer's instructions. 30 μl of PEI (1 mg ml^−1), 5 μg cDNA and 1 ml DMEM/F12 were incubated for 10 min at room temperature, added drop wise to a 90 mm plate of 70–80% confluent HEK293 cells, and incubated for 2–3 days before use.
(§2) Human embryonic kidney (HEK) 293 cells were grown on 90 mm round tissue culture plates as monolayers in DMEM/F12 (Life Technologies) supplemented with 10% fetal bovine serum (FBS; Sigma Aldrich) at 37 °C in a moist atmosphere containing 5% CO2.
(§3) Transfected HEK 293 cells were scraped into 0.6 ml of ice-cold 10 mM HEPES buffer (pH 7.4) and stored frozen. After thawing, they were washed with HEPES buffer, homogenised by passage through a 21 G needle, and 50 μg of cell suspension incubated in 0.5 ml HEPES buffer containing [^3H]epibatidine (55.8 Ci/mmol, Waltham, MA). Non-specific binding was determined using 300 μM (−)-nicotine. Equilibrium reactions were incubated on ice for at least 1 h. Incubations were terminated by vacuum filtration onto Whatman GF/B filters wetted with 0.3% polyethyleneimine, followed by two rapid washes with 2.5 ml ice cold buffer. Radioactivity was determined by scintillation in Ultima Gold XR (Perkin Elmer) using a Tri-Carb 2100 TR (PerkinElmer) scintillation counter. Final counts were monitored to ensure that binding never exceeded 10% of the added concentrations of radioligands.
(§4) All data were analysed using GraphPad Prism v5. Individual saturation binding experiments were fitted to Eq. (1):(1) […] where Bmax is maximum binding at equilibrium, Kd is the equilibrium dissociation constant and [L] is the free concentration of radioligand. Values from individual experiments were averaged to yield the mean ± sem. Affinities were compared using 1-way ANOVA and a Dunnett's Post-Test.

[2] = target: α7 nACh receptor Q114C; format: binding, chick
Description: as §1, §2, §3, §4

[3] = target: α7 nACh receptor T146C; format: binding, chick
Description: as §1, §2, §3, §4

[4] = target: α7 nACh receptor C186A; format: binding, chick
Description: as §1, §2, §3, §4

[5] = target: α7 nACh receptor L116C; format: binding, chick
Description: as §1, §2, §3, §4

[6] = target: α7 nACh receptor S144C; format: binding, chick
Description: as §1, §2, §3, §4

[7] = target: T1, wild type α7 nACh receptors (UniProt P22770+P23979, M226I/T225I); format: binding, chick; conditions: α7 nACh-5-HT3 chimaera in HEK 293 cells
T1 construct: directed against the 5-HT3 region of the chimaeric receptor; expressed in transfected cells; host or cells: HEK293
Description: as §1, §2, §3, §4

[8] = target: α7 nACh receptor D160C; format: binding, chick
Description: as §1, §2, §3, §4

[9] = target: α7 nACh receptor Q55C; format: binding, chick
Description: as §1, §2, §3, §4

[10] = target: α7 nACh receptor C187A; format: binding, chick
Description: as §1, §2, §3, §4

[11] = target: T2, wild type α7 nACh receptors (UniProt P22770+P23979); format: binding, chick
T2 construct: directed against the 5-HT3 region of the chimaeric receptor; expressed in transfected cells; host or cells: HEK293
Description: as §1, §2, §3, §4

[12] = target: α7 nACh receptor L106C; format: binding, chick
Description: as §1, §2, §3, §4

[13] = target: T3, human 5-HT3 receptors (Homo sapiens, UniProt P46098); format: binding; conditions: concentration of up to 25 nM
T3 construct: expressed in transfected cells; host or cells: HEK293
Description: as §1
(§5) Transfected HEK 293 cells were scraped into 0.6 ml of ice-cold 10 mM HEPES buffer (pH 7.4) and stored frozen. […] Non-specific binding was determined using 300 μM (−)-nicotine. […] Radioactivity was determined by scintillation in Ultima Gold XR (Perkin Elmer) using a Tri-Carb 2100 TR (PerkinElmer) scintillation counter. Final counts were monitored to ensure that binding never exceeded 10% of the added concentrations of radioligands. […]

[14] = target: mouse 5-HT3 receptors (Mus musculus, UniProt P23979); format: binding; conditions: concentration of up to 25 nM
Description: as §1, §5
Target sequence in this assay (P23979 24-246 limits assumed): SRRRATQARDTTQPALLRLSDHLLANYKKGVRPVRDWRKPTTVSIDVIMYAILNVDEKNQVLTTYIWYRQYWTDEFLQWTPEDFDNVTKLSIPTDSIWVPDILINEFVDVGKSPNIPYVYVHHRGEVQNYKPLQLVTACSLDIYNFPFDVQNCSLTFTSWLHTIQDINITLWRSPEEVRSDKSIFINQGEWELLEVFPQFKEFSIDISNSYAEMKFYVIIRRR

[15] = target: α7 nACh receptor Y191C; set-up: species or system chick; conditions: no saturable binding
Description: as §1, §2, §3, §4

[16] = target: α7 nACh receptor N104C; set-up: species or system chick; conditions: no saturable binding
Description: as §1, §2, §3, §4

[17] = target: α7 nACh receptor W53C; set-up: species or system chick; conditions: no saturable binding
Description: as §1, §2, §3, §4

[18] = target: α7 nACh receptor Y184C; set-up: species or system chick; conditions: no saturable binding
Description: as §1, §2, §3, §4

[19] = target: α7 nACh receptor W145C; set-up: species or system chick; conditions: no saturable binding
Description: as §1, §2, §3, §4

[20] = target: α7 nACh receptor Y91C; set-up: species or system chick; conditions: no saturable binding
Description: as §1, §2, §3, §4

[21] = tested on: α7 nACh receptors W53F; set-up: method as in Li et al., 2011; Van Arnam et al., 2013; conditions: W53F ref Li et al., 2011; Van Arnam et al., 2013; cited from earlier work
[22] = tested on: α7 nACh receptors W145F; set-up: method as in Li et al., 2011; conditions: W145F ref Li et al., 2011; cited from earlier work
[23] = target: T3, human 5-HT3 receptors; test: biochemical; format: binding
Description: as §1, §5

[24] = target: T4, mouse 5-HT3 receptors (Mus musculus, UniProt P23979); test: biochemical; format: binding
T4 construct: expressed in transfected cells; host or cells: HEK293
Description: as §1, §5
T4 sequence (P23979 24-483 isoform P23979-2 limits assumed): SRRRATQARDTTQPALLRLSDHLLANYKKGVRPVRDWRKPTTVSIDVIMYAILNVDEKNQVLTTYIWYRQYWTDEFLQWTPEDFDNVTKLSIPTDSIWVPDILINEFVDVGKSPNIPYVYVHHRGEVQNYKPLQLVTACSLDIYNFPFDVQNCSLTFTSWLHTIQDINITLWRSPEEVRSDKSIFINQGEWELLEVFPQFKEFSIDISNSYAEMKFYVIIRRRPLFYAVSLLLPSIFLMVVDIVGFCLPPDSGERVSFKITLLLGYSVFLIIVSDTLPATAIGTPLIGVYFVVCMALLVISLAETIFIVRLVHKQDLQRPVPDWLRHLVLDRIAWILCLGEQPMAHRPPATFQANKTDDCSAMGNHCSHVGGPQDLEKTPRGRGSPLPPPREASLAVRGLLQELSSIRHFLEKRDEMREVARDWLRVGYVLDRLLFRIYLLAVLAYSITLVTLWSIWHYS

[25] = target: α7 nACh receptors W53A; set-up: method as in Li et al., 2011; Van Arnam et al., 2013; conditions: W53 substituted by Ala ref Li et al., 2011; Van Arnam et al., 2013; cited from earlier work
[26] = target: α7 nACh receptors; set-up: method as in Li et al., 2011; Van Arnam et al., 2013; conditions: before W53 substitution ref Li et al., 2011; Van Arnam et al., 2013; cited from earlier work
[27] = tested on: α7 nACh receptors L116A; set-up: method as in Blum et al., 2013; Van Arnam et al., 2013; conditions: L116 Ala mutation ref Blum et al., 2013, Van Arnam et al.; cited from earlier work
[28] = tested on: α7 nACh receptors Y184F; set-up: method as in Li et al., 2011; conditions: Y184F ref Li et al., 2011; cited from earlier work

T3 sequence (P46098 24-478): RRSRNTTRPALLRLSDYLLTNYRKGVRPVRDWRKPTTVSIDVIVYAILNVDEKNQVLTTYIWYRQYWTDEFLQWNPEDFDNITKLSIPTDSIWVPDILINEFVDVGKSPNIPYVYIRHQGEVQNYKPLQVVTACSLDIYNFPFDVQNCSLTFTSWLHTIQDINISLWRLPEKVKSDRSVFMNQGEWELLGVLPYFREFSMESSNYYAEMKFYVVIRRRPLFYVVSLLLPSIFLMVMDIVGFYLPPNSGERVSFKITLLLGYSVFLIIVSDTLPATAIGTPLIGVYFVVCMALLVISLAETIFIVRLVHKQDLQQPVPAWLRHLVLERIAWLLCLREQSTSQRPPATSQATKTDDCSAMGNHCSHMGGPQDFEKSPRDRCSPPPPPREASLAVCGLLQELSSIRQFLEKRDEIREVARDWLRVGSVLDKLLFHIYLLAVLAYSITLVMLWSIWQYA
T1 sequence (P22770+P23979 fused P22770:T225I/P22770:M226I): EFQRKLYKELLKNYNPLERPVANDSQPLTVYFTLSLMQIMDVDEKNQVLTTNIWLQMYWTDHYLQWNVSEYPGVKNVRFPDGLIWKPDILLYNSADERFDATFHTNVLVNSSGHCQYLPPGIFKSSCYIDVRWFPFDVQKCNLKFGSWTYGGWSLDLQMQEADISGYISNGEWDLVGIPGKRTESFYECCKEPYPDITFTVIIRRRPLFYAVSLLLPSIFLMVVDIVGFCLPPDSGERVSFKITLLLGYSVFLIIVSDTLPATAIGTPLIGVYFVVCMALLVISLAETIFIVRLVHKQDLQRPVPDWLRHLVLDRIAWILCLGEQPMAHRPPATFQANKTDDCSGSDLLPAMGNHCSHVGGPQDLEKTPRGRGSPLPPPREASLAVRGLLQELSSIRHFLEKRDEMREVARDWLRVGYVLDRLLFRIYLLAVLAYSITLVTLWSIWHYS
T2 sequence (P22770+P23979 fused P22770:T225I/P22770:M226I): as above

Clc1ccc(C2CC3CCC2N3)cn1 (stereo not drawn) [[^3H]epibatidine]
Kd [1]: 7.2 nM
pKd Mean ± SEM ([1]; loop F, HEK 293 cells): 8.14 ± 0.09
Kd [2]: 1.5 nM
pKd Mean ± SEM ([2]; loop E, HEK 293 cells): 8.82 ± 0.09
Kd [3]: 9.8 nM
pKd Mean ± SEM ([3]; loop B, HEK 293 cells): 8.01 ± 0.07
Kd [4]: 33 nM
pKd Mean ± SEM ([4]; loop C, HEK 293 cells): 7.48 ± 0.10
Kd [5]: 5.1 nM
pKd Mean ± SEM ([5]; loop E, HEK 293 cells): 8.29 ± 0.05
Kd [6]: 2.3 nM
pKd Mean ± SEM ([6]; loop B, HEK 293 cells): 8.64 ± 0.12
pKd Mean ± SEM [7]: 8.09 ± 0.06
Kd [8]: 8.7 nM
pKd Mean ± SEM ([8]; loop F, HEK 293 cells): 8.06 ± 0.10
Kd [9]: 6.9 nM
pKd Mean ± SEM ([9]; loop D, HEK 293 cells): 8.16 ± 0.09
Kd [10]: 60 nM
pKd Mean ± SEM ([10]; loop C, HEK 293 cells): 7.22 ± 0.07
Kd [11]: 8 nM
Kd [12]: 8.3 nM
pKd Mean ± SEM ([12]; loop E, HEK 293 cells): 8.08 ± 0.12
saturable binding [13]: not detected
saturable binding [14]: not detected
Kd [15]: > 20 nM
Kd [16]: > 20 nM
Kd [17]: > 20 nM
Kd [18]: > 20 nM
Kd [19]: > 20 nM
Kd [20]: > 20 nM

Clc1ccc(C2CC3CCC2N3)cn1 (stereo not drawn) [epibatidine]
affinity change by mutation [21]: 4 fold
reduction of affinity by mutation [22]: > 2200 fold
Ki [23]: 2510 nM
Ki [24]: 12300 nM
EC50 [25]: 5800 nM
increase in affinity relative to wild type [2]: 5 fold
EC50 [26]: 340 nM
change in the EC50 by mutation [27]: 9 fold
change of affinity by mutation [28]: > 250 fold
